Source: ChEMBL document CHEMBL3797129, “Dysiherbols A-C and Dysideanone E, Cytotoxic and NF-κB Inhibitory Tetracyclic Meroterpenes from a Dysidea sp. Marine Sponge” (J Nat Prod, 2016)

How the values were obtained:
[1] = Cytotoxicity against human NCI-H929 cells after 48 hrs by MTS assay; assay type: functional, cell-based; conditions: NCI-H929, 48 h
[2] = Inhibition of TNF alpha-induced NF-kappaB (unknown origin) activation in HEK293 cells after 6 hrs by luciferase reporter gene assay; assay type: cell-based; conditions: Homo sapiens, HEK293, 6 h

Compound	IC50 [1]	IC50 [2]
CC1=CCC[C@H]2[C@](C)(Cc3cc(O)ccc3O)[C@@H](C)CC[C@]12C [AVAROL]	3.32 µM	> 10 µM
COc1ccc([C@@]23Oc4cc(OC)cc(OC)c4[C@]2(O)[C@H](O)[C@H](C(=O)N(C)C)[C@H]3c2ccccc2)cc1 [ROCAGLAMIDE]	3.9 µM	2.6 µM
C=C1CC[C@H]2[C@H]3[C@](C)(CC4=CC(=O)C=C[C@@]42O)[C@@H](C)CC[C@]13C	25 µM	> 10 µM
C[C@@H]1CC[C@]2(C)[C@@]3(CCC(=O)[C@]2(C)O)c2c(O)ccc(O)c2C[C@@]13C	12 µM	6.4 µM
C[C@@H]1CC[C@]2(C)[C@@]3(CC[C@H](O)[C@]2(C)O)c2c(O)ccc(O)c2C[C@@]13C	15 µM	5.9 µM
C[C@@H]1CC[C@]2(C)[C@@]3(CCC[C@]2(C)O)c2c(O)ccc(O)c2C[C@@]13C	0.58 µM	0.49 µM
